Measured values: patent US12590091B2, “1H-pyrrolo[3,2-C]pyridine and 1H-pyrrolo[2,3-C]pyridine derivatives as TLR9 inhibitors for the treatment of fibrosis” (BRISTOL-MYERS SQUIBB COMPANY, priority 2020, dated 2026)

What was measured:
human TLR9 = target: T1, human TLR9 (Homo sapiens, UniProt Q9NR96); experiment: TLR9 inhibition reporter assay (HEK-Blue cells, SEAP reporter); assay type: cell-based; details: HEK-Blue cells overexpressing human TLR9, stimulated with ODN2006 5 nM, 22 hour incubation
T1 construct: host or cells: HEK-Blue cells
T1 sequence (Q9NR96 26-1032): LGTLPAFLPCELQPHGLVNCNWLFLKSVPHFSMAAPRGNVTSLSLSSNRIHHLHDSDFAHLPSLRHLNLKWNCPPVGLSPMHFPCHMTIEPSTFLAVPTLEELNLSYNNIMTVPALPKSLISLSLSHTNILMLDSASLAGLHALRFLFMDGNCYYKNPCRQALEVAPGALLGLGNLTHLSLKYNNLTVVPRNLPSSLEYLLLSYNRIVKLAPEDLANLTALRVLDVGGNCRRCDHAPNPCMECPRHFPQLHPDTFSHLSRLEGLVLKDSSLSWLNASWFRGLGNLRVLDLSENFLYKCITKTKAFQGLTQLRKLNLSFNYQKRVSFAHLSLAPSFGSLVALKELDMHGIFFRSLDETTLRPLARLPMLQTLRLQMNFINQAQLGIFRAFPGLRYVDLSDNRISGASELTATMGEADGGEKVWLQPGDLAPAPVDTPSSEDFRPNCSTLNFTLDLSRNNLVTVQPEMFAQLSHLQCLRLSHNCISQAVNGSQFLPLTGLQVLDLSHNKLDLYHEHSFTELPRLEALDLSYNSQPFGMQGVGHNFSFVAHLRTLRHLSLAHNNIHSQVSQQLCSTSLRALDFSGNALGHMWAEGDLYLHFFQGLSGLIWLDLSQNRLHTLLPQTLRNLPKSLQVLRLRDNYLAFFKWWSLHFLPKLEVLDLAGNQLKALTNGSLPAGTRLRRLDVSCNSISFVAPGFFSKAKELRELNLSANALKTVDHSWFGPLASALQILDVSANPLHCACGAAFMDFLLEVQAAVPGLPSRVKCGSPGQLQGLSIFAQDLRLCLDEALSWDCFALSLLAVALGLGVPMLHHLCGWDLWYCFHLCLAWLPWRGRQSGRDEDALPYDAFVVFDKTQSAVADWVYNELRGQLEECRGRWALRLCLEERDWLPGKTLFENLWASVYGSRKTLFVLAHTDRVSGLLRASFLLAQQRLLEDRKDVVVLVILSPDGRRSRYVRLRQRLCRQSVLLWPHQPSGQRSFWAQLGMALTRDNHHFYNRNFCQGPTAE
How it was run: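 HEK-Blue cells overexpressing human TLR9 (25,000 cells/well), NF-κB/AP-1-driven SEAP reporter. Compounds at 0.05 nM–50 μM final, 22 h at 37 °C, 5% CO2 with agonist. SEAP detected with HEK-Blue Detection medium; % inhibition versus agonist plus DMSO and known-inhibitor wells.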

human TLR8 = target: T2, human TLR8 (Homo sapiens, UniProt Q9NR97); experiment: TLR8 inhibition reporter assay (HEK-Blue cells, SEAP reporter); assay type: cell-based; details: HEK-Blue cells overexpressing human TLR8, stimulated with R848 15.9 μM, 22 hour incubation
T2 construct: host or cells: HEK-Blue cells
T2 sequence (Q9NR97 27-1041): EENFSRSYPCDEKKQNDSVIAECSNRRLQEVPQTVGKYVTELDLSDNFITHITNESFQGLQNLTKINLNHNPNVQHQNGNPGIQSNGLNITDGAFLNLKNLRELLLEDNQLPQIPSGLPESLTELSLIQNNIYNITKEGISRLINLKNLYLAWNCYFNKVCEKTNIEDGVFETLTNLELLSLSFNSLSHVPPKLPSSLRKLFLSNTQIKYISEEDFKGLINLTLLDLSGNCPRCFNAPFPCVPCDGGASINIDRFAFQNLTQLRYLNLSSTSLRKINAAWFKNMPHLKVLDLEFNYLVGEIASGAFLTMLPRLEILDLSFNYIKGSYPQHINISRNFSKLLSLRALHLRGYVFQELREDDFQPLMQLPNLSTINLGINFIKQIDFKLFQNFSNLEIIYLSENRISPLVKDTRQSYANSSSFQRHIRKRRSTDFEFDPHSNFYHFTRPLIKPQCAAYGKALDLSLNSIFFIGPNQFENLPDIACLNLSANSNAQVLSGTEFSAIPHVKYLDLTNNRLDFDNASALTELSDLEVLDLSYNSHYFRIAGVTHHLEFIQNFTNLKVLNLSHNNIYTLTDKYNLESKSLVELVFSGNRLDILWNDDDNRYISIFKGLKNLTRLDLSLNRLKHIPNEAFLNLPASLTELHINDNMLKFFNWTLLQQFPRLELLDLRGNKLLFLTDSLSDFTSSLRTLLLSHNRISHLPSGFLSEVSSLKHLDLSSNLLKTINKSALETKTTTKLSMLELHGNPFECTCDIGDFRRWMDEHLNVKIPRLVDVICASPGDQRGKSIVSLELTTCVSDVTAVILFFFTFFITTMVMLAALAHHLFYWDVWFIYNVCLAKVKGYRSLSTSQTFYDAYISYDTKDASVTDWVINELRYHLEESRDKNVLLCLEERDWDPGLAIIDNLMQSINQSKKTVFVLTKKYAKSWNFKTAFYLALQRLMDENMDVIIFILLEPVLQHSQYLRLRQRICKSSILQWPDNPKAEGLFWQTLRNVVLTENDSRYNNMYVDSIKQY
How it was run: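 Screening used HEK-Blue cells overexpressing one human TLR (7, 8 or 9) and an IFN-β minimal promoter–NF-κB/AP-1 SEAP construct. Stimulation lasted 22 h at 37 °C with receptor-specific agonist: gardiquimod, R848 or ODN2006 at 7.5 μM, 15.9 μM and 5 nM.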

| Structure (SMILES) | IC50 (human TLR9) [nM] | IC50 (human TLR8) [nM] |
| --- | --- | --- |
| CCOC(=O)N1CCC(N2CCC(c3cc4c(cn3)cc(-c3ccc(OC)c(OC)c3)n4C)CC2)CC1 [Example 7, Ethyl 4-(2-(3,4-dimethoxyphenyl)-1-methyl-1H-pyrrolo[3,2-c]pyridin-6-yl)-[1,4′-bipiperidine]-1′-carboxylate] | 111 | 5200 |
| COc1ccc(-c2cc3cnc(C4CCN(Cc5ccc(C)nc5)CC4)cc3n2C)cc1OC [Example 8, 2-(3,4-Dimethoxyphenyl)-1-methyl-6-(1-((6-methylpyridin-3-yl)methyl)piperidin-4-yl)-1H-pyrrolo[3,2-c]pyridine] | 58 | 25900 |
| Cc1nc(-c2cc(F)c(N3CCN(C4CCOCC4)CC3)c(F)c2)cc2c1cc(-c1ccc(S(C)(=O)=O)cc1)n2C [Example 89, 6-(3,5-difluoro-4-(4-(tetrahydro-2H-pyran-4-yl)piperazin-1-yl)phenyl)-1,4-dimethyl-2-(4-(methylsulfonyl)phenyl)-1H-pyrrolo[3,2-c]pyridine] | 226 | > 50000 |
| Cc1nc(-c2ccc(C3(O)CCN(CC(C)C)CC3)c(F)c2)cc2c1cc(-c1ccc(S(C)(=O)=O)cc1)n2C [Example 90, 4-(4-(1,4-dimethyl-2-(4-(methylsulfonyl)phenyl)-1H-pyrrolo[3,2-c]pyridin-6-yl)-2-fluorophenyl)-1-isobutylpiperidin-4-ol] | 141 | 22100 |
| Cc1nc(-c2ccc(C3(O)CC4CCC(C3)N4CC(C)C)c(F)c2)cc2c1cc(-c1ccc(S(C)(=O)=O)cc1)n2C [Example 91, (1R,3r,5S)-3-(4-(1,4-dimethyl-2-(4-(methylsulfonyl)phenyl)-1H-pyrrolo[3,2-c]pyridin-6-yl)-2-fluorophenyl)-8-isobutyl-8-azabicyclo[3.2.1]octan-3-ol] | 735 | 1300 |
| COCCN1CCC(O)(c2ccc(-c3cc4c(cc(-c5ccc(S(C)(=O)=O)cc5)n4C)c(C)n3)cc2F)CC1 [Example 92, 4-(4-(1,4-dimethyl-2-(4-(methylsulfonyl)phenyl)-1H-pyrrolo[3,2-c]pyridin-6-yl)-2-fluorophenyl)-1-(2-methoxyethyl)piperidin-4-ol] | 109 | > 50000 |
| Cc1nc(-c2ccc(C3(O)CCN(C4CC4)CC3)c(F)c2)cc2c1cc(-c1ccc(S(C)(=O)=O)cc1)n2C [Example 93, 1-cyclopropyl-4-(4-(1,4-dimethyl-2-(4-(methylsulfonyl)phenyl)-1H-pyrrolo[3,2-c]pyridin-6-yl)-2-fluorophenyl)piperidin-4-ol] | 1430 | > 50000 |
| Cc1nc(-c2cc(F)c(C3(O)CCN(CC(C)C)CC3)cc2F)cc2c1cc(-c1ccc(S(C)(=O)=O)cc1)n2C [Example 94, 4-(4-(1,4-dimethyl-2-(4-(methylsulfonyl)phenyl)-1H-pyrrolo[3,2-c]pyridin-6-yl)-2,5-difluorophenyl)-1-isobutylpiperidin-4-ol] | 143 | 2500 |
| COCCN1CCC(O)(c2cc(F)c(-c3cc4c(cc(-c5ccc(S(C)(=O)=O)cc5)n4C)c(C)n3)cc2F)CC1 [Example 95, 4-(4-(1,4-dimethyl-2-(4-(methylsulfonyl)phenyl)-1H-pyrrolo[3,2-c]pyridin-6-yl)-2,5-difluorophenyl)-1-(2-methoxyethyl)piperidin-4-ol] | 537 | 2700 |
| Cc1nc(-c2cc(F)c(C3(O)CCN(C4CC4)CC3)cc2F)cc2c1cc(-c1ccc(S(C)(=O)=O)cc1)n2C [Example 96, 1-cyclopropyl-4-(4-(1,4-dimethyl-2-(4-(methylsulfonyl)phenyl)-1H-pyrrolo[3,2-c]pyridin-6-yl)-2,5-difluorophenyl)piperidin-4-ol] | 162 | 4100 |
| Cc1nc(-c2cc(F)c(N3CCN4CCCC4C3)cc2F)cc2c1cc(-c1ccc(S(C)(=O)=O)cc1)n2C (stereo not drawn) [Example 97, 6-(2,5-difluoro-4-(hexahydropyrrolo[1,2-a]pyrazin-2(1H)-yl)phenyl)-1,4-dimethyl-2-(4-(methylsulfonyl)phenyl)-1H-pyrrolo[3,2-c]pyridine] | 202 | 5300 |
| Cc1nc(-c2cc(F)c(N3CCN4CCCC4C3)c(F)c2)cc2c1cc(-c1ccc(S(C)(=O)=O)cc1)n2C (stereo not drawn) [Example 98, 6-(3,5-difluoro-4-(hexahydropyrrolo[1,2-a]pyrazin-2(1H)-yl)phenyl)-1,4-dimethyl-2-(4-(methylsulfonyl)phenyl)-1H-pyrrolo[3,2-c]pyridine] | 212 | > 50000 |
